One test deals with A549. The test can be described thus: Cytotoxicity against human A549 cells assessed as reduction in cell viability after 48 hrs by MTT assay. The conditions noted are these: A549, 48 h. Format: functional, cell-based. In general terms: Tetrazolium assays rely on reduction of a dye to a coloured formazan, in cell work by metabolically active cells.
For the next test, the system named is HL-60. The test can be described thus: Cytotoxicity against human HL60 cells assessed as reduction in cell viability after 48 hrs by MTT assay. Format: functional, cell-based. To be noted: HL-60, 48 h.
The next test deals with SW480. In words: Cytotoxicity against human SW480 cells assessed as reduction in cell viability after 48 hrs by MTT assay. It is filed as functional, cell-based. The conditions noted are these: SW480, 48 h.
Another test relates to SMMC-7721. In words: Cytotoxicity against human SMMC7721 cells assessed as reduction in cell viability after 48 hrs by MTT assay. Format: functional, cell-based. To be noted: SMMC-7721, 48 h.
In another test the test system is MCF7. In words: Cytotoxicity against human MCF7 cells assessed as reduction in cell viability after 48 hrs by MTT assay. Format: functional, cell-based. To be noted: MCF7, 48 h.
Another test has as its target Acetylcholinesterase (Homo sapiens, UniProt P22303). The test can be described thus: Inhibition of human erythrocytes acetylcholinesterase after 30 mins using S-acetylthiocholine iodide substrate by spectrophotometry based Ellman method. A general note: Ellman's reagent forms a yellow product with free thiols.

Chain of Acetylcholinesterase (P22303 whole entry): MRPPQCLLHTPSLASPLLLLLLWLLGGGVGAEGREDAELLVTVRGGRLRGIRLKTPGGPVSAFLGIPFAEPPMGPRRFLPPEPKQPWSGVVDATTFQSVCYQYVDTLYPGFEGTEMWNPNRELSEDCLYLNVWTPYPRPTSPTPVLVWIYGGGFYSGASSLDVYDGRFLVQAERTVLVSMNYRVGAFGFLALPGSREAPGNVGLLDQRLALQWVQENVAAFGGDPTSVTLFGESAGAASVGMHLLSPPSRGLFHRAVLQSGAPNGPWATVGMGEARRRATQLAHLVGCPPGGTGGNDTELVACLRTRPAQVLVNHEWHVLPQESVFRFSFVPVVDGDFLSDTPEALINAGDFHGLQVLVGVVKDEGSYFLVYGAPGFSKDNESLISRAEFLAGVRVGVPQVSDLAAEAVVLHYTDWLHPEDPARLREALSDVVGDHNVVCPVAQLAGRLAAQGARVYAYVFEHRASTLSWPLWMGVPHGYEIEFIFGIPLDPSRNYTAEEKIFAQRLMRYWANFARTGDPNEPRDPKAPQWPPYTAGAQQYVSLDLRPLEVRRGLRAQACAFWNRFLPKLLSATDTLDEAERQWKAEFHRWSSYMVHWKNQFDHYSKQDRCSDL

The term IC50 denotes the point on the concentration scale where inhibition reaches its midpoint. Consider `CC(C)=CC[C@]12C[C@@H]3[C@@H]4[C@@H](O)C(C)(C)[C@@H](C(C)(C)O)CC4(C1=O)C(=O)[C@](C(=O)c1ccccc1)(C2=O)C3(C)C`, for which the IC50 with A549 was 24.9 µM; in the test with HL-60 it was 17.1 µM; in the test with SW480, more than 40 µM; with SMMC-7721 it was 20.8 µM; with MCF7, 28.4 µM.
Turning to `CC(C)=CCC[C@]1(C)[C@@H](CC=C(C)C)C[C@]2(CC=C(C)C)C(=O)[C@@]3(CC=C(C)C)OC2(O)[C@]1(C(=O)C(C)C)C3=O`, the 50% inhibitory concentration (IC50) with A549, with HL-60, in the test with SW480, in the test on SMMC-7721 and with MCF7 was more than 40 µM throughout.
For the compound `CC(C)=CCC[C@]1(C)[C@@H](CC=C(C)C)C[C@]23C[C@@H](C(C)(C)O)OC2=C(CC=C(C)C)C(=O)[C@@]1(C(=O)c1ccccc1)C3=O`, the IC50 in the test with A549, in the test with HL-60, in the test on SW480, in the test on SMMC-7721 and with MCF7 was more than 40 µM in each case.
Consider `CC(C)=CCC/C(C)=C/C[C@]12C[C@@H]3[C@@H]4[C@@H](O)C(C)(C)[C@@H](C(C)C)CC4(C1=O)C(=O)[C@](C(=O)c1ccccc1)(C2=O)C3(C)C`, for which the IC50 in the test on A549 was found to be 13.3 µM; with HL-60, 14.5 µM; with SW480, 19.1 µM; in the test on SMMC-7721, 14.2 µM; in the test with MCF7, 17.6 µM.
Compound `C/C(=C\C[C@]12C[C@H]3C[C@@H]4C(C)(C)CC[C@@]4(C1=O)C(=O)[C@](C(=O)c1ccccc1)(C2=O)C3(C)C)CC/C=C/C(C)C` yielded an IC50 at Acetylcholinesterase of 9.8 µM.
With `CCC(C)C(=O)[C@@]12C(=O)C(CC=C(C)C)=C3O[C@H](C(C)(C)O)C[C@]3(C[C@H](CC=C(C)C)[C@@]1(C)CCC=C(C)C)C2=O` (some centres undefined), the IC50 in the test with A549, in the test on HL-60, in the test with SW480, in the test with SMMC-7721 and with MCF7 was more than 40 µM in each case.
In the case of `CC(C)=CC[C@H]1C[C@]23C[C@H]4C(C)(C)c5ccccc5C(=O)[C@]45C(=O)[C@](CC=C(C)C)(C2=O)[C@@H](CC=C(C)C)[C@@]1(C)[C@@]35O`, the IC50 in the test on A549 is 19.3 µM; in the test with HL-60, 14 µM; in the test on SW480 it was more than 40 µM; in the test on SMMC-7721 it was 20.8 µM; in the test with MCF7 it was 27.7 µM.
For `CC(C)=CCC/C(C)=C/C[C@]12C[C@@H]3[C@H](C=C(C)C)[C@](CC=C(C)C)(C1=O)C(=O)[C@](C(=O)c1ccccc1)(C2=O)C3(C)C`, in that order: more than 40 µM, more than 40 µM, more than 40 µM, more than 40 µM and more than 40 µM.
For `CC(C)=CCC[C@]1(C)[C@@H](CC=C(C)C)C[C@]2(CC=C(C)C)C(=O)C(CC=C(C)C)=C(O)[C@@]1(C(=O)C(C)C)C2=O`, in that order: more than 40 µM, more than 40 µM, more than 40 µM, more than 40 µM and more than 40 µM.
Taken in the same sequence, the figures for `CC(C)=CCC1(CC=C(C)C)C(=O)[C@]2(C[C@H]3[C@@H](CC[C@@]3(C)O)[C@](C)(O)C2)C(=O)C(C(=O)C(C)C)=C1O` were more than 40 µM, more than 40 µM, more than 40 µM, more than 40 µM and more than 40 µM.
For `CC(C)=CCC[C@]1(C)[C@@H](CC=C(C)C)C[C@]23C[C@@H](C(C)(C)O)OC2=C(CC=C(C)C)C(=O)[C@@]1(C(=O)C(C)C)C3=O`, the half-maximal inhibitory concentration (IC50) in the test on A549, in the test with HL-60, in the test with SW480, in the test on SMMC-7721 and in the test with MCF7 was more than 40 µM each time.
`CCC(C)C(=O)[C@]12C(=O)[C@]3(CC=C(C)C)C[C@H](CC=C(C)C)[C@@]1(C)CC[C@@H](C(C)(C)O)OC2=C(CC=C(C)C)C3=O` (some centres undefined) gave an IC50 on Acetylcholinesterase of 37.2 µM.
In the case of `CC(C)=CC[C@]12C[C@@H]3[C@@H]4[C@@H](O)C(C)(C)[C@@H](C(C)C)CC4(C1=O)C(=O)[C@](C(=O)c1ccccc1)(C2=O)C3(C)C`, the half-maximal inhibitory concentration (IC50) is 14.2 µM in the test with A549; 16.5 µM in the test with HL-60; 17.4 µM in the test with SW480; 16.5 µM in the test on SMMC-7721; 14.1 µM in the test on MCF7; 26.4 µM against Acetylcholinesterase.
As for `CCC(C)C(=O)[C@]12C(=O)[C@]3(CC=C(C)C)OC1(O)[C@](CC=C(C)C)(C[C@H](CC=C(C)C)[C@@]2(C)CCC=C(C)C)C3=O` (some centres undefined), the IC50 in the test on A549, in the test on HL-60, in the test on SW480, with SMMC-7721 and in the test with MCF7 was more than 40 µM each time.
Turning to `CC(C)=CC[C@]12C[C@@H]3[C@H](C=C(C)C)[C@](CC=C(C)C)(C1=O)C(=O)[C@](C(=O)c1ccccc1)(C2=O)C3(C)C` [PLUKENETIONE A], the IC50 was 19.8 µM in the test on A549; 23.6 µM in the test with HL-60; more than 40 µM in the test with SW480; 16.6 µM in the test with SMMC-7721; 27.7 µM in the test on MCF7.
For `CC(=O)O[C@H]1C(=O)[C@@]2(C)[C@H]([C@H](OC(=O)c3ccccc3)[C@]3(O)C[C@H](OC(=O)[C@H](O)[C@@H](NC(=O)c4ccccc4)c4ccccc4)C(C)=C1C3(C)C)[C@]1(OC(C)=O)CO[C@@H]1C[C@@H]2O` [PACLITAXEL], in that order: less than 0.008 µM, less than 0.008 µM, less than 0.008 µM, less than 0.008 µM and less than 0.008 µM.
Consider `C=C(C)[C@H]1CC[C@@](C)(O)[C@@H](C2=C(O)C(CC=C(C)C)(CC=C(C)C)C(=O)C(C(=O)C(C)C)=C2O)C1`, for which the IC50 on Acetylcholinesterase stood at 25.4 µM.

Values taken from ChEMBL document CHEMBL3580622 (J Nat Prod, 2015).
